US20120090043A1, “TARGETS FOR RETROVIRUS ASSOCIATED DISEASES” (priority 2009, published 2012)
Peptide text beside a SMILES is read from it. * marks the point of attachment. Cbz = O=C(OCc1ccccc1)*

Experiments:
[1] = tested on: HIV-1 LTR promoter transactivation by HIV-1 Tat; assay: Transactivation assay, HIV-1 LTR luciferase reporter with HIV-1 Tat; assay type: cell-based; details: HEK293 cells co-transfected with pHIV1LTR-Luc, HIV-1 Tat and the human ORF; relative luciferase activity 24 h post-transfection; positive if >=2 or <=0.5 and p<0.05
Source text: The plasmids pHIV1LTR-Luc or pHTLV1LTR-Luc containing a luciferase reporter gene under the control of the HIV-1 or HTLV-1 LTR promoters and plasmids expressing either HIV-1 Tat or HTLV-1 Tax and each human ORF found to interact with viral proteins were transfected into 10^4 HEK293 cells using the calcium phosphate method. Twenty-four hours post-transfection, cells were washed three times with PBS, lysed and luciferase activities determined from two independent transfection experiments in triplicate. We computed a paired t-test to assess the difference of the means between samples with and without the human interactor. For a trial to be considered positive, the relative luciferase activities has to be >=2 or <=0.5, and the p-value of the t-test<0.05.
Many HIV/HTLV-human interactions in our data set (130/212) involved the retroviral transactivator proteins HTLV-1 Tax (57/212), HTLV-2 Tax2 (49/212), HIV-1 Tat (10/212) and HIV-2 Tat (14/212). Human proteins interacting with viral transactivators likely influence Tat or Tax transactivation. Expression vectors encoding human ORFs and HIV-1 Tat or HTLV-1 Tax proteins were tested in a transactivation reporter assay against reporter plasmids harboring HIV-1 or HTLV-1 viral promoter sequences cloned upstream of the luciferase reporter gene. In the controls Tat or Tax respectively activated HIV or HTLV LTR-directed gene expression. Co-transfection of interacting human ORFs identified 71 proteins (54% of the 131 human targets in our data set) that regulated HIV (26.7% of targets), HTLV (37.4% of targets) or both (9.9% of targets) LTR promoter activation by Tat or Tax (see Tables 7 and 8; Table 13 below containing quantitative data on the regulation of transactivation). Wherever not expressly specified, constructs used herein were generally made by sub-cloning entry clones from the ORFeome V3.1 into suitable destination vectors.

[2] = tested on: HTLV-1 LTR promoter transactivation by HTLV-1 Tax; assay: Transactivation assay, HTLV-1 LTR luciferase reporter with HTLV-1 Tax; assay type: cell-based; details: HEK293 cells co-transfected with pHTLV1LTR-Luc, HTLV-1 Tax and the human ORF; relative luciferase activity 24 h post-transfection; positive if >=2 or <=0.5 and p<0.05
Source text: Twenty-four hours post-transfection, cells were washed three times with PBS, lysed and luciferase activities determined from two independent transfection experiments in triplicate. We computed a paired t-test to assess the difference of the means between samples with and without the human interactor. For a trial to be considered positive, the relative luciferase activities has to be >=2 or <=0.5, and the p-value of the t-test<0.05.
Expression vectors encoding human ORFs and HIV-1 Tat or HTLV-1 Tax proteins were tested in a transactivation reporter assay against reporter plasmids harboring HIV-1 or HTLV-1 viral promoter sequences cloned upstream of the luciferase reporter gene. […] Wherever not expressly specified, constructs used herein were generally made by sub-cloning entry clones from the ORFeome V3.1 into suitable destination vectors.

TRAF2 = assay: Western blot of HIV-1 Gag induced TRAF2 degradation in HEK293T cells; assay type: cell-based, human
Source text: FIG. 8 illustrates (A) Western-blotting of HEK293T cell extracts transfected with expressing vectors for GST-TRAF2 or truncated mutants deltaTRAF2 and deltaRING and p55 GAG/GFP, as indicated. Cell extracts were immunobloted with anti-GST, anti-GFP and anti-actin antibodies. (B) Western-blotting of HEK293T cells transfected with expressing vectors for GST-TRAF2 or GST-deltaRING truncated mutant, p55 GAG/GFP and Myc-Ubiquitin, as indicated. Cell extracts were immunobloted with anti-GST, anti-Myc and anti-actin antibodies. (C) Cells were pretreated with the cathepsin B inhibitor CA-074Me (10 μM) or the proteasomal inhibitor MG-132 (1 μM) for 24 H. Cell lysates were analysed as in (B).
To further corroborate that HIV Gag protein targets TRAF2 for proteasomal degradation, we first co-expressed in HEK293 cells HIV-1 Gag and TRAF2 or its truncation mutants lacking the TRAF domain (ΔTRAF) required for upstream signaling, or lacking the RING domain (ΔRING) required for E3 ubiquitin ligase function and downstream signaling. […]
In the presence of HIV-1 Gag we observed reduction of TRAF2 and ΔTRAF protein levels but not with the RING domain truncated mutant (FIG. 8A). To test whether TRAF2-E3 ubiquitin ligase activity was affected by HIV1 Gag, we next co-transfected a Myc-Ubiquitin expressing vector and evaluated the levels of Myc-tagged cellular ubiquitylated proteins by immunoblotting. […]

[3] = tested on: HTLV-1 transformed cell line (MT4); assay: Quantitative RT-PCR of HTLV-1 mRNA in MT4 cells after γ-secretase (Notch pathway) inhibition; assay type: cell-based; details: 1 μM, 48 hours, vs vehicle (0.5% DMSO), mRNA relative to GAPDH
Procedure: FIG. 9 illustrates relative HTLV1-HBZ, -Gag and -Tax mRNA expression following MT4 cells treatment with vehicle (0.5% DMSO) or 1 μM of γ-secretase inhibitor L685,458. Viral mRNA expression data are calculated relative to GAPDH mRNA expression data as 2̂(CT(GAPDH)-CT(HBZ/Gag/Tax)) over three times triplicate experiments for each gene.
HTLV-1 transformed cell line (MT4) from Dr. Douglas Richman (Harada et al. Science, 1985, col. 229, p. 563-566) was obtained through the AIDS Research and Reference Reagent Program, Division of AIDS, NIAID, NIH. MT4 cells were cultured in RPMI supplemented with 10% fetal bovine serum and antibiotics. MT-4 cells were treated for 48 hours with a γ-secretase inhibitor (L-685,458) (Shearman et al. Biochemistry, 2000, vol. 39, 8698-8704). at 1 μM or vehicle (0.5% DMSO). Total RNA were then isolated by Trizol method, subjected to Dnase treatment and cDNAs synthesized using the RevertAid First Strand cDNA Synthesis kit according to the manufacturer instructions (Fermentas). Quantitative Real-time PCR for GAPDH, HBZ, Gag and Tax expression was performed on StepOne instrument (Applied Biosystem) using SYBR green dye (Eurogentec). Viral mRNA expression data are calculated relative to GAPDH mRNA expression data as 2̂(CT(GAPDH)—CT(HBZ/Gag/Tax)) over three times triplicate experiments for each gene, and differences were assessed through one-tailed Student's t-test.
To directly assess the involvement of the Notch pathway in viral infection, we treated HTLV-1 transformed cell line (MT4) with a γ-secretase inhibitor (GSI) (L-685,458) and tested whether inhibition of the Notch pathway could influence HTLV-1 expression in MT4 cell line.

**Q.** For “LOC91661: human host interactor protein, Gene ID 91661, expressed from transfected ORF vector”, which HIV_LTR transactiv. [1] is on record?
**A.** Its HIV_LTR transactiv. is 0.16 fold change.

**Q.** “BHLHB2: human host interactor protein, Gene ID 8553, expressed from transfected ORF vector” was tested. Which HTLV_LTR transactiv. [2] did it give?
**A.** The HTLV_LTR transactiv. was 0.20 fold change.

**Q.** Which HTLV_LTR transactiv. [2] does the source give for “PSMF1: human host interactor protein, Gene ID 9491, expressed from transfected ORF vector” here?
**A.** The HTLV_LTR transactiv. was 14.83 fold change.

**Q.** Which HTLV_LTR transactiv. [2] does the source give for “HOXB9: human host interactor protein, Gene ID 3219, expressed from transfected ORF vector” here?
**A.** Its HTLV_LTR transactiv. is 3.69 fold change.

**Q.** “OTX2: human host interactor protein, Gene ID 5015, expressed from transfected ORF vector” was tested. Which HTLV_LTR transactiv. [2] did it give?
**A.** The HTLV_LTR transactiv. was 7.37 fold change.

**Q.** Which HTLV_LTR transactiv. [2] does the source give for “KCTD1: human host interactor protein, Gene ID 284252, expressed from transfected ORF vector” here?
**A.** Its HTLV_LTR transactiv. is 0.42 fold change.

**Q.** “NOS3: human host interactor protein, Gene ID 4846, expressed from transfected ORF vector” was tested. Which HTLV_LTR transactiv. [2] did it give?
**A.** Its HTLV_LTR transactiv. is 0.45 fold change.

**Q.** How did the HIV_LTR transactiv. [1] turn out when “UBE2I: human host interactor protein, Gene ID 7329, expressed from transfected ORF vector” was run?
**A.** The HIV_LTR transactiv. was 3.34 fold change.

**Q.** For “PCBP1: human host interactor protein, Gene ID 5093, expressed from transfected ORF vector”, which HTLV_LTR transactiv. [2] is on record?
**A.** The HTLV_LTR transactiv. was 0.44 fold change.

**Q.** Which HIV_LTR transactiv. [1] does the source give for “ZMAT1: human host interactor protein, Gene ID 84460, expressed from transfected ORF vector” here?
**A.** The HIV_LTR transactiv. was 0.20 fold change.

**Q.** With “HOXA3: human host interactor protein, Gene ID 3200, expressed from transfected ORF vector” as the molecule, how does the HTLV_LTR transactiv. [2] read?
**A.** Its HTLV_LTR transactiv. is 0.25 fold change.

**Q.** What about the HIV_LTR transactiv. [1] of the same molecule?
**A.** Its HIV_LTR transactiv. is 0.29 fold change.

**Q.** “C8orf32: human host interactor protein, Gene ID 55093, expressed from transfected ORF vector” was tested. Which HTLV_LTR transactiv. [2] did it give?
**A.** Its HTLV_LTR transactiv. is 0.26 fold change.

**Q.** How did the HIV_LTR transactiv. [1] turn out when “DVL2: human host interactor protein, Gene ID 1856, expressed from transfected ORF vector” was run?
**A.** Its HIV_LTR transactiv. is 0.40 fold change.

**Q.** “CRX: human host interactor protein, Gene ID 1406, expressed from transfected ORF vector” was tested. Which HIV_LTR transactiv. [1] did it give?
**A.** Its HIV_LTR transactiv. is 0.24 fold change.

**Q.** For `CC(C)C[C@@H](C=O)NC(=O)[C@H](CC(C)C)NC(=O)[C@H](CC(C)C)NC(=O)OCc1ccccc1` [MG132] (Cbz-Leu-Leu-Leu-aldehyde), which “HIV1-Gag induced degradation of TRAF2” value (TRAF2; FIG. 6) is on record?
**A.** The value was “not inhibited”.

**Q.** What about the “HIV-1 Gag induced degradation of TRAF2” value (TRAF2; HEK293T cells pretreated with 1 μM for 24 H, FIG. 8C) of the same molecule?
**A.** The value was “could be blocked”.

**Q.** Which HTLV_LTR transactiv. [2] does the source give for “FXR2: human host interactor protein, Gene ID 9513, expressed from transfected ORF vector” here?
**A.** The HTLV_LTR transactiv. was 0.38 fold change.

**Q.** Which results are given for `CC(C)C[C@H](NC(=O)[C@H](Cc1ccccc1)C[C@@H](O)[C@H](Cc1ccccc1)NC(=O)OC(C)(C)C)C(=O)N[C@@H](Cc1ccccc1)C(N)=O` [L-685,458]?
**A.** HTLV-1 Tax1 expression ([3]; p<0.003): significantly lowers; HTLV-1 Gag expression ([3]; p<0.04): significantly lowers; HTLV-1 HBZ expression ([3]; p<2.1E-5): significantly lowers
